Assay results from paper PMC4920673, “Nitroimidazole carboxamides as antiparasitic agents targeting Giardia lamblia, Entamoeba histolytica and Trichomonas vaginalis” (European Journal of Medicinal Chemistry, 2016).
Converted amounts (≈) assume the structure as drawn. Where two headings read alike, the source gives them in different places.

What was measured:
G. lamblia 713M3 (MtzR) = assay: ATP-bioluminescence growth/survival EC50 assay, G. lamblia 713M3; assay type: cell-based, Giardia lamblia; settings: Giardia duodenalis
Experimental: (§1) Compounds were screened for antiparasitic activity using an ATP-bioluminescence based assay for cell growth and survival, [24]. […] Viable cell numbers were determined in triplicate using the CellTiter-Glo Luminescent Cell Viability Assay.

[1] = Resazurin cytotoxicity assay, HepG2; assay type: cell-based, Human; settings: human, 24 h, highest concentration 100 μM, n = 3, read-out: CC50 Hep G2
Experimental: (§2) Human HEK293 and HepG2 cells were seeded at 3000 and 5000 cells per well in 384-well plates, respectively. Cells were cultured in Dulbecco's modified Eagle's medium with 10% FBS for 24 h at 37 °C, 5% CO2. A dilution series of compounds was added, with the highest concentration of 100 μM. […] After 24 h incubation with the compounds, 5 μM resazurin was added into each well and incubated at 37 °C for 2 h. As a negative control, 1% Triton X-100 was added into the culture media to lyse all of the cells. The fluorescence intensity was read using Polarstar Omega with excitation/emission 560/590 nm. Data were analysed with GraphPad Prism 6 software (La Jolla, California USA) to calculate CC50 values.

G. lamblia WB (MtzS) = assay: ATP-bioluminescence growth/survival EC50 assay, G. lamblia WB; settings: for S.I (CC50/EC50): average cytotoxicity against HEK293 and HepG2 / G. lamblia WB activity
Experimental: as §1

[2] = system: C. difficile 630 (ATCC BAA-1382); assay: Broth microdilution MIC assay, C. difficile 630; assay type: cell-based, Clostridium difficile; settings: Clostridioides difficile, ATCCBAA1382; strain 630, MtzS; median of n = 4; read-out: MIC C. difficile 630
Experimental: Clostridium difficile strains (630, ATCC BAA-1382 and NAP1/027, ATCC BAA-1803) were maintained as previously described. The minimum inhibition concentration (MIC) was determined according to the CLSI Methods with modifications in broth and inoculum for C. difficile, [25], [26]. Briefly, compounds and control antibiotics were serially diluted two-fold in 96-well plates (Non-binding surface, Corning). […] C. difficile bacteria from BHIS(TA) agar plates were cultured anaerobically in BHIS at 37 °C overnight. […] An antibiotic standard, a positive growth control (no compound) and a sterility control (no bacteria) were included on each 96 well plate. Plates were covered and incubated at 37 °C for 24 h. MICs for each strain were determined as the lowest concentration without visible growth. […] Median MICs are reported with a range given when the median MIC was between two tested concentrations.

T. vaginalis F1623 = assay: ATP-bioluminescence growth/survival EC50 assay, T. vaginalis; assay type: cell-based, Trichomonas vaginalis; settings: Trichomonas vaginalis
Experimental: as §1

[3] = Resazurin cytotoxicity assay, HEK293; assay type: cell-based, Human; settings: human, 24 h, highest concentration 100 μM, n = 3, read-out: CC50 HEK 293
Experimental: as §2

E. histolytica HM1:IMSS = assay: ATP-bioluminescence growth/survival EC50 assay, E. histolytica; assay type: cell-based, Entamoeba histolytica; settings: Entamoeba histolytica
Experimental: as §1

[4] = system: C. difficile NAP1/027 (ATCC BAA-1803); assay: Broth microdilution MIC assay, C. difficile NAP1/027; assay type: cell-based, Clostridium difficile; settings: Clostridioides difficile, ATCCBAA1803; strain NAP1/027
Experimental: Clostridium difficile strains (630, ATCC BAA-1382 and NAP1/027, ATCC BAA-1803) were maintained as previously described. The minimum inhibition concentration (MIC) was determined according to the CLSI Methods with modifications in broth and inoculum for C. difficile, [25], [26]. Briefly, compounds and control antibiotics were serially diluted two-fold in 96-well plates (Non-binding surface, Corning). The plates were placed in a Coy anaerobic chamber (5% H2, 10% CO2, 85% N2) overnight to reduce the medium. C. difficile bacteria from BHIS(TA) agar plates were cultured anaerobically in BHIS at 37 °C overnight. […]. Compound concentration ranged from 64 to 0.03 μg/mL. An antibiotic standard, a positive growth control (no compound) and a sterility control (no bacteria) were included on each 96 well plate. Plates were covered and incubated at 37 °C for 24 h. MICs for each strain were determined as the lowest concentration without visible growth. Variance between replicates was typically within one 2-fold dilution. Median MICs are reported with a range given when the median MIC was between two tested concentrations.

[5] = read-out: EC50 G. lamblia 713M3, MtzR strain 713M3, minimum n = 3
[6] = read-out: pEC50 ± SE G. lamblia 713M3, MtzR strain 713M3 (converted)
[7] = Giardia duodenalis, read-out: EC50 G. lamblia WB, MtzS strain WB, minimum n = 3
[8] = Giardia duodenalis, read-out: pEC50 ± SE G. lamblia WB, MtzS strain WB (converted)
[9] = read-out: EC50 T. vaginalis F1623, MtzS, minimum n = 3
[10] = read-out: pEC50 ± SE T. vaginalis F1623, MtzS (converted)
[11] = read-out: EC50 E. histolytica HM1:IMSS
[12] = read-out: pEC50 ± SE E. histolytica HM1:IMSS (converted)

Row | SMILES | EC50 (G. lamblia 713M3 (MtzR); [5]) [µM] | EC50 (G. lamblia 713M3 (MtzR); [6]) [µM] | CC50 at 24 h ([1]; HepG2 cells) [µM] | EC50 (G. lamblia WB (MtzS); [7]) [µM] | EC50 (G. lamblia WB (MtzS); [8]) [µM] | S.I (CC50/EC50) (G. lamblia WB (MtzS)) | MIC [2] [µg/mL] | EC50 (T. vaginalis F1623; [9]) [µM] | EC50 (T. vaginalis F1623; [10]) [µM] | CC50 at 24 h ([3]; HEK293 cells) [µM] | EC50 (E. histolytica HM1:IMSS; [11]) [µM] | EC50 (E. histolytica HM1:IMSS; [12]) [µM] | MIC [4] [µg/mL] | EC50 (G. lamblia WB (MtzS); read-out: EC50 G. lamblia WB, MtzS strain WB, minimum n = 3) [µM] | CC50 at 24 h [1] [µM] | CC50 at 24 h [3] [µM]
1 | CC(NC(=O)c1ncc([N+](=O)[O-])n1C)c1ccc(F)cc1 (stereo not shown) [Compound 8d, N-(1-(4-fluorophenyl)ethyl)-1-methyl-5-nitro-1H-imidazole-2-carboxamide] | 1.9 | 1.86 | > 100 | 2.9 | 2.88 | >34 | 64 (≈ 219 µM) | 3.8 | 3.8 | > 100 | 10 | 10 | > 64 |  |  | 
2 | Cc1ccc(CCNC(=O)c2ncc([N+](=O)[O-])n2C)cc1 [Compound 8e, 1-methyl-N-(4-methylphenethyl)-5-nitro-1H-imidazole-2-carboxamide] | > 20 | > 20 | > 100 | 2.8 to 3.5 | 2.82 | >36 | > 64 |  | 8.13 | > 100 | 13 | 12.9 | > 64 | 2.8 |  | 
3 | Cn1c([N+](=O)[O-])cnc1C(=O)NCc1ccccn1 [Compound 8f, 1-methyl-5-nitro-N-(pyridin-2-ylmethyl)-1H-imidazole-2-carboxamide.xTFA] | 4.1 | 4.07 | > 100 | 1.6 | 1.58 | >63 | 64 | 1.4 | 1.45 | > 100 | 14 | 14.1 | 64 |  |  | 
4 | Cn1c([N+](=O)[O-])cnc1C(=O)N1CCCC1 [Compound 8i, (1-methyl-5-nitro-1H-imidazol-2-yl)(pyrrolidin-1-yl)methanone] | 4 | 3.98 | > 100 | 2.9 | 2.88 | >34 | 64 (≈ 285 µM) | 1.7 | 1.74 | > 100 | 22 | 21.9 | 64 (≈ 285 µM) |  |  | 
5 | Cn1c([N+](=O)[O-])cnc1C(=O)NC1CC1 [Compound 8j, N-cyclopropyl-1-methyl-5-nitro-1H-imidazole-2-carboxamide] | 8.6 | 8.71 | > 100 | 3.4 | 3.39 | >29 | > 64 | 1.1 | 1.1 | > 100 | 12 | 12 | > 64 |  |  | 
6 | NC(=O)c1nc([N+](=O)[O-])cn1Cc1ccc(F)cc1 [Compound 13a, 1-(4-fluorobenzyl)-4-nitro-1H-imidazole-2-carboxamide] |  |  |  | > 50 | > 50.1 |  | > 64 |  |  |  | > 50 | > 50.1 |  |  | > 100 | > 100
7 | NC(=O)c1nc([N+](=O)[O-])cn1Cc1ccc(OC(F)(F)F)cc1 [Compound 13b, 4-nitro-1-(4-(trifluoromethoxy)benzyl)-1H-imidazole-2-carboxamide] |  |  |  | 4.1 | 4.07 | >22 | > 64 |  |  |  | > 25 | > 25.1 |  |  | > 100 | > 100
8 | NC(=O)c1nc([N+](=O)[O-])cn1Cc1cccc(OC(F)(F)F)c1 [Compound 13c, 4-nitro-1-(3-(trifluoromethoxy)benzyl)-1H-imidazole-2-carboxamide] |  |  |  | 8.4 | 8.32 | >12 | > 64 |  |  |  | > 50 | > 50.1 |  |  | > 100 | > 100
